Measured values: patent publication US20220354818A1, “METHODS FOR TREATING BRAIN INJURY OR COGNITIVE DYSFUNCTION BY PHARMACOLOGICAL ENHANCMENT OF M-TYPE POTASSIUM ION CURRENTS IN NEURONS” (Advanced Neuroresearch Therapeutics LLC, priority 2019, published 2022)
“Also recorded” adds a separate entry of the source.

Experiments:
[1] = tested on: mice subjected to one blunt TBI, pentylenetetrazol (PTZ); assay: PTZ-induced seizure susceptibility after one blunt TBI (CCCI); assay type: in vivo, mouse; conditions: RL648_81 at 0.1 mg/kg; PTZ 35 mg/kg s.c. fifth day post-TBI
From the text: Stimulation with PTZ induced the occurrence of clonic and tonic-clonic seizures in TBI-subjected mice.

[2] = tested on: cortical neurons; assay: In vivo two-photon calcium imaging of cortical neurons through a cranial window after TBI; conditions: living mouse brain
From the text: Referring now to FIG. 9, another embodiment of the present invention concerns in vivo imaging of intracellular calcium levels in neurons from living brain in vivo, as a reporter of activity/hyperactivity. The genetically-encoded calcium reporter, GCaMP6f, was used in transgenic mice in which the reporter is expressed in critical subsets of brain neurons, allowing in vivo recordings of neurons of living brain, as a reporter of activity/hyperactivity in cortex induced by TBI, the first event in the hypothesis of the present invention, which causes TBI-induced brain damage (See, e.g., FIG. 1). For these experiments two-photon confocal live imaging of mouse cortical neurons through a cortical window was used. Live video records of the activity of cortical neurons in mice before and after TBI were made.

[3] = tested on: mice subjected to one blunt TBI (CCCI); assay: Dosage optimization: spontaneous myoclonic seizures after one blunt TBI (CCCI); assay type: in vivo, mouse; conditions: RL648_81 0.03, 0.1 and 0.3 mg/kg i.p. once 30 minutes post-TBI
Method: An additional KCNQ2/3-specific compound, RL648_81 was also administered in the same manner (0.03 mg/kg, 0.1 mg/kg, and 0.3 mg/kg). […] To monitor the occurrence of spontaneous myoclonic seizures after, the mice were video/EEG monitored from the second to the fourth day after the TBI (72 hours total).

[4] = tested on: neurons of the dentate gyrus of the hippocampus; assay: Ex vivo brain-slice calcium imaging (GCaMP6f) with kainic acid stimulation after TBI; assay type: in vivo, mouse; conditions: RL648_81 30 minutes after blunt TBI
Method: In another embodiment of the present invention, ex vivo imaging of intracellular calcium levels in neurons, which are a reporter of activity or hyper-activity of neurons, were assayed in the brain slices using transgenic mice expressing the genetically encoded indicator of calcium levels, GCaMP6f expressed only in neurons.
Turning now to FIG. 8, the chemo-convulsant, kainic acid (KA), was used to stimulate neurons from brain slices of the dentate gyms (DG) of the hippocampus (the part of the brain where most new memories are thought to form) from sham mice, mice subjected to a TBI but not drug or TBI followed by RL-648_81.

[5] = tested on: sympathetic neuron; assay: Action potential firing in a sympathetic neuron, current-clamp
From the text: Various currents are applied in “current-clamp” mode 44 ranging from 50 pA to −100 pA, and the resulting AP firing recorded.

## CCOC(=O)Nc1ccc(NCc2ccc(C(F)(F)F)cc2)c(F)c1N [RL648_81]
[1]
  occurrence of PTZ-induced seizures: completely blocked the occurrence of PTZ-induced seizures
[2]
  TBI-induced hyper-excitability in cortex imaged in vivo: prevents TBI-induced hyper-excitability in cortex
[3]
  occurrence of TBI-induced myoclonic seizures: measurably reduced the occurrence of TBI-induced myoclonic seizures
[4]
  TBI-induced increase in hyper-activity in response to kainic acid stimulation (hippocampal slices, ex vivo): reduces the increased seizure susceptibility in brain slices; also recorded: completely abolished

## O=C1N(c2ccccc2)c2ccccc2C1(Cc1ccncc1)Cc1ccncc1 [leopardine]
[5]
  action potential firing in response to stimuli: out-of-control AP firing
